Data taken from US12514832B2, “Methods for using low-dose colchicine after myocardial infarction” (INSTITUT DE CARDIOLOGIE DE MONTREAL, priority 2019, dated 2026).

System: patients recruited within 30 days after a myocardial infarction
Experiment: COLCOT randomized, double-blind, placebo-controlled trial: clinical efficacy end points
Type: in vivo, human
Parameters: Primary efficacy composite endpoint, % of patients with event: concentration or dose not given beside the values
Procedure: We performed a randomized, double-blind trial involving patients recruited within 30 days after a myocardial infarction. The patients were randomly assigned to receive either low-dose colchicine (0.5 mg once daily) or placebo. A total of 4745 patients were enrolled; 2366 patients were assigned to the colchicine group, and 2379 to the placebo group. Patients were followed for a median of 22.6 months.
The primary efficacy end point was a composite of death from cardiovascular causes, resuscitated cardiac arrest, myocardial infarction, stroke, or urgent hospitalization for angina leading to coronary revascularization. The components of the primary end point and safety were also assessed.
In this randomized, double-blind, placebo-controlled, investigator-initiated trial, we assigned patients in a 1:1 ratio to receive either colchicine (at a dose of 0.5 mg once daily) or placebo. The trial protocol, available at NEJM.org, was designed by a trial steering committee. The protocol was approved by the institutional review board at each of the 167 centers in the 12 countries that participated in the trial (available at NEJM.org). All trial support activities, including project coordination, data management, site monitoring, and statistical oversight and analyses, were performed at the Montreal Health Innovations Coordinating Center. Potential trial end-point events were adjudicated by an independent clinical end-point committee composed of experienced cardiologists and neurologists who were unaware of the trial-group assignments. The trial was overseen by a data and safety monitoring board of independent experts. The trial medication and matching placebo were provided by Pharmascience.
Patients were excluded if they had severe heart failure, a left ventricular ejection fraction of less than 35%, stroke within the previous 3 months, a type 2 index myocardial infarction, coronary-bypass surgery either within the previous 3 years or planned, a history of noncutaneous cancer within the previous 3 years, inflammatory bowel disease or chronic diarrhea, neuromuscular disease or a nontransient creatine kinase level that was greater than three times the upper limit of the normal range (unless due to infarction), clinically significant nontransient hematologic abnormalities, severe renal disease with a serum creatinine level that was greater than two times the upper limit of the normal range; severe hepatic disease, drug or alcohol abuse, current or planned long-term systemic glucocorticoid therapy, or a history of clinically significant sensitivity to colchicine. (Details regarding eligibility criteria are provided herein.)
The primary efficacy end point was a composite of death from cardiovascular causes, resuscitated cardiac arrest, myocardial infarction, stroke, or urgent hospitalization for angina leading to coronary revascularization in a time-to-event analysis.
The secondary end points consisted of the components of the primary efficacy end point; a composite of death from cardiovascular causes, resuscitated cardiac arrest, myocardial infarction, or stroke; and total mortality in time-to-event analyses. Coronary revascularization, hospitalization for heart failure, atrial fibrillation, and deep venous thrombosis or pulmonary embolus were prespecified as exploratory end points in the protocol.
The efficacy analyses were conducted with the use of positively adjudicated data and according to the intention-to-treat principle. The primary end point was compared between the two trial groups with the use of a log-rank test, and the hazard ratio from a Cox proportional-hazards model, with a 95% confidence interval, was calculated. A Cox proportional-hazards model with adjustment for important baseline characteristics was also used as prespecified in the protocol.
The analysis of the primary end point was repeated in the per-protocol population (i.e., patients without major protocol deviations). […]

[1] = per-protocol population, N=2260

COc1cc2c(c(OC)c1OC)-c1ccc(OC)c(=O)cc1[C@@H](NC(C)=O)CC2 [Colchicine, colchicine]
Primary efficacy composite endpoint, Hazard ratio (colchicine vs placebo, subgroup Female): 0.99 | Primary efficacy composite endpoint, Hazard ratio (colchicine vs placebo, subgroup History of diabetes No): 0.85 | Primary efficacy composite endpoint, Hazard ratio (colchicine vs placebo, subgroup History of diabetes Yes): 0.65 | Primary efficacy composite endpoint, Hazard ratio (colchicine vs placebo, subgroup History of hypertension No): 0.80 | Primary efficacy composite endpoint, Hazard ratio (colchicine vs placebo, subgroup History of hypertension Yes): 0.76 | Primary efficacy composite endpoint, Hazard ratio (colchicine vs placebo, subgroup Male): 0.70 | Primary efficacy composite endpoint, Hazard ratio (colchicine vs placebo, subgroup Non-smoker): 0.90 | Primary efficacy composite endpoint, Hazard ratio (colchicine vs placebo, subgroup Previous smoker): 0.59 | Primary efficacy composite endpoint, Hazard ratio (colchicine vs placebo, subgroup Prior MI No): 0.68 | Primary efficacy composite endpoint, Hazard ratio (colchicine vs placebo, subgroup Prior MI Yes): 1.05 | Primary efficacy composite endpoint, Hazard ratio (colchicine vs placebo, subgroup Prior PCI or CABG No): 0.72 | Primary efficacy composite endpoint, Hazard ratio (colchicine vs placebo, subgroup Prior PCI or CABG Yes): 0.91 | Primary efficacy composite endpoint, Hazard ratio (colchicine vs placebo, subgroup Prior stroke or TIA No): 0.76 | Primary efficacy composite endpoint, Hazard ratio (colchicine vs placebo, subgroup Prior stroke or TIA Yes): 1.09 | Primary efficacy composite endpoint, Hazard ratio (colchicine vs placebo, subgroup White blood cell count Above median): 0.80 | Primary efficacy composite endpoint, Hazard ratio (colchicine vs placebo, subgroup White blood cell count Below median): 0.85 | Primary endpoint, hazard ratio (colchicine vs placebo, women, per-protocol population): 0.81 (0.47; 1.41) | MI, % [1]: 3.4% | MI, no. of patients [1]: 77 | Primary endpoint, % of patients [1]: 5.1% | Primary endpoint, no. of patients [1]: 115 | Resuscitated cardiac arrest, % [1]: 0.2% | Resuscitated cardiac arrest, no. of patients [1]: 5 | Stroke, % [1]: 0.2% | Stroke, no. of patients [1]: 5 | Urgent hospitalization for angina requiring revascularization, % [1]: 1.0% | Urgent hospitalization for angina requiring revascularization, no. of patients [1]: 22 | Primary efficacy composite endpoint, % of patients with event (subgroup Active smoker): 5.4% | Primary efficacy composite endpoint, no. of patients with event (subgroup Active smoker, total 708): 38 | Primary efficacy composite endpoint, % of patients with event (subgroup Female): 7.8% | Primary efficacy composite endpoint, no. of patients with event (subgroup Female, total 472): 37 | Primary efficacy composite endpoint, % of patients with event (subgroup History of diabetes No): 4.8% | Primary efficacy composite endpoint, no. of patients with event (subgroup History of diabetes No, total 1904): 91 | Primary efficacy composite endpoint, % of patients with event (subgroup History of diabetes Yes): 8.7% | Primary efficacy composite endpoint, no. of patients with event (subgroup History of diabetes Yes, total 462): 40 | Primary efficacy composite endpoint, % of patients with event (subgroup History of hypertension No): 4.1% | Primary efficacy composite endpoint, no. of patients with event (subgroup History of hypertension No, total 1181): 48 | Primary efficacy composite endpoint, % of patients with event (subgroup History of hypertension Yes): 7.0% | Primary efficacy composite endpoint, no. of patients with event (subgroup History of hypertension Yes, total 1185): 83 | Primary efficacy composite endpoint, % of patients with event (subgroup Male): 5.0% | Primary efficacy composite endpoint, no. of patients with event (subgroup Male, total 1894): 94 | Primary efficacy composite endpoint, % of patients with event (subgroup Non-smoker): 6.0% | Primary efficacy composite endpoint, no. of patients with event (subgroup Non-smoker, total 787): 47 | Primary efficacy composite endpoint, % of patients with event (subgroup Previous smoker): 5.3% | Primary efficacy composite endpoint, no. of patients with event (subgroup Previous smoker, total 871): 46 | Primary efficacy composite endpoint, % of patients with event (subgroup Prior MI No): 4.3% | Primary efficacy composite endpoint, no. of patients with event (subgroup Prior MI No, total 1996): 85 | Primary efficacy composite endpoint, % of patients with event (subgroup Prior MI Yes): 12.4% | Primary efficacy composite endpoint, no. of patients with event (subgroup Prior MI Yes, total 370): 46 | Primary efficacy composite endpoint, % of patients with event (subgroup Prior PCI or CABG No): 4.3% | Primary efficacy composite endpoint, no. of patients with event (subgroup Prior PCI or CABG No, total 1947): 83 | Primary efficacy composite endpoint, % of patients with event (subgroup Prior PCI or CABG Yes): 11.5% | Primary efficacy composite endpoint, no. of patients with event (subgroup Prior PCI or CABG Yes, total 419): 48 | Primary efficacy composite endpoint, % of patients with event (subgroup Prior stroke or TIA No): 5.3% | Primary efficacy composite endpoint, no. of patients with event (subgroup Prior stroke or TIA No, total 2311): 123 | Primary efficacy composite endpoint, % of patients with event (subgroup Prior stroke or TIA Yes): 14.5% | Primary efficacy composite endpoint, no. of patients with event (subgroup Prior stroke or TIA Yes, total 55): 8 | Primary efficacy composite endpoint, % of patients with event (subgroup White blood cell count Above median): 5.3% | Primary efficacy composite endpoint, no. of patients with event (subgroup White blood cell count Above median, total 637): 34 | Primary efficacy composite endpoint, % of patients with event (subgroup White blood cell count Below median): 6.2% | Primary efficacy composite endpoint, no. of patients with event (subgroup White blood cell count Below median (8.64 × 10^3/μL), total 660): 41
